This passage reports IC50 and Ki results from ChEMBL document CHEMBL1909046, “DrugMatrix in vitro pharmacology data”.

For orientation: pIC50 means −log10 of the IC50, conventionally taken in molar units. The pKi is −log10 of the Ki, conventionally taken in molar units.

pIC50, pKi: −log10 of the molar value.

Chain of Beta-2 adrenergic receptor (P07550 whole entry): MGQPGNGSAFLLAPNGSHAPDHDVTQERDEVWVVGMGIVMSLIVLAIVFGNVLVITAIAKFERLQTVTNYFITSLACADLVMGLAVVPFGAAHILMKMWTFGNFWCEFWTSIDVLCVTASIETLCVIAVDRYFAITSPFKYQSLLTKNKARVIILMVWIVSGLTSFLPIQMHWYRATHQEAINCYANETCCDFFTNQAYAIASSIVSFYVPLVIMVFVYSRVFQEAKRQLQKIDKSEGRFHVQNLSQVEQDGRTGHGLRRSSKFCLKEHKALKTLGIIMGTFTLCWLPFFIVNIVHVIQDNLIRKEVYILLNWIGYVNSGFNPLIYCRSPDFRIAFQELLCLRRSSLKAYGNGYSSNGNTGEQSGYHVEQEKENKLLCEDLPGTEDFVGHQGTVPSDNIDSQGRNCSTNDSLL

One series has as its target Beta-2 adrenergic receptor (Homo sapiens, UniProt P07550). Put plainly: DRUGMATRIX: Adrenergic beta2 radioligand binding (ligand: [3H] CGP-12177). In kind it is cell membranes, Membrane. The note with it: cho; Not Active = under 50% inhibition at 10 µM.
Regarding `Fc1ccc([C@@H]2CCNC[C@H]2COc2ccc3c(c2)OCO3)cc1` [PAROXETINE], the IC50 result is listed as “Not Active”.

As to `Nc1nc2c(ncn2COC(CO)CO)c(=O)[nH]1` [GANCICLOVIR], the IC50 result is on record as “Not Active”.

As for `COCc1c(C(C)C)nc(C(C)C)c(/C=C/[C@@H](O)C[C@@H](O)CC(=O)O)c1-c1ccc(F)cc1` [CERIVASTATIN], the IC50 result is “Not Active”.

A further series addresses T1, 5-hydroxytryptamine receptor 1A (Rattus norvegicus, UniProt P19327).
T1 sequence (P19327 whole entry): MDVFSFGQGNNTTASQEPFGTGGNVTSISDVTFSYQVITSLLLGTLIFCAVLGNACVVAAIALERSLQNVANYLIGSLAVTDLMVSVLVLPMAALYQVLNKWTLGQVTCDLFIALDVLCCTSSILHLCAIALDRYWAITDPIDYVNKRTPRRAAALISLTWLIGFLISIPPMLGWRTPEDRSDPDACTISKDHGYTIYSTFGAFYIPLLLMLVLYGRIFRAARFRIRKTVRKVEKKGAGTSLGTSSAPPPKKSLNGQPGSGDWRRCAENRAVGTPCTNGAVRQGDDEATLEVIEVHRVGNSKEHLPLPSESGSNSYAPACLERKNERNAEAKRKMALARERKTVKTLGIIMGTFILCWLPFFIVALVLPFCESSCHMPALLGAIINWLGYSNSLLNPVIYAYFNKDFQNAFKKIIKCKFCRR
In kind it is cell membranes, CHO-K1, Membrane. As to conditions: cho-k1.
In the case of `Fc1ccc([C@@H]2CCNC[C@H]2COc2ccc3c(c2)OCO3)cc1` [PAROXETINE], the IC50 result was “Not Active”.

For `Nc1nc2c(ncn2COC(CO)CO)c(=O)[nH]1` [GANCICLOVIR], the IC50 result is “Not Active”.

Take `COCc1c(C(C)C)nc(C(C)C)c(/C=C/[C@@H](O)C[C@@H](O)CC(=O)O)c1-c1ccc(F)cc1` [CERIVASTATIN]: the IC50 result is “Not Active”.

A further series concerns the target T2, Muscarinic acetylcholine receptor M2 (Homo sapiens, UniProt P08172). Note: in other assays of this panel Not Active means under 50% inhibition at 10 µM.
T2 sequence (P08172 whole entry): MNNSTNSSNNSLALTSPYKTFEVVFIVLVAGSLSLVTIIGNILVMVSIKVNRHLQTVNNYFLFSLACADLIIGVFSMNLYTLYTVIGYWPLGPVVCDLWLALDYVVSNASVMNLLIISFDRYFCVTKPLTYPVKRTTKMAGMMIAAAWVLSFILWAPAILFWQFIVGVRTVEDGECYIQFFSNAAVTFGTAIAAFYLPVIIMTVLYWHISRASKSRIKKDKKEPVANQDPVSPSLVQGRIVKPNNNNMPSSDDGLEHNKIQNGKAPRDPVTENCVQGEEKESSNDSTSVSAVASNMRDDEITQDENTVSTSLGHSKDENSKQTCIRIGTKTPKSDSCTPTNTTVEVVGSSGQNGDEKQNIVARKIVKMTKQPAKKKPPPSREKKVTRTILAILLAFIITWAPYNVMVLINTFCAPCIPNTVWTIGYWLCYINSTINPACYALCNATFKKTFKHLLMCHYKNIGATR
In kind it is cell membranes, CHO-K1, Membrane. As to conditions: cho-k1.
With `Nc1nc2c(ncn2COC(CO)CO)c(=O)[nH]1` [GANCICLOVIR], the IC50 entry is recorded as “Not Active”.

For `COCc1c(C(C)C)nc(C(C)C)c(/C=C/[C@@H](O)C[C@@H](O)CC(=O)O)c1-c1ccc(F)cc1` [CERIVASTATIN], the IC50 entry is recorded as “Not Active”.

The target in the next series is Cytochrome P450 2C9 (Homo sapiens, UniProt P11712). The note with it: bti-tn-5b1-4. Note: in other assays of this panel Not Active means under 50% inhibition at 10 µM.
Chain of Cytochrome P450 2C9 (P11712 whole entry): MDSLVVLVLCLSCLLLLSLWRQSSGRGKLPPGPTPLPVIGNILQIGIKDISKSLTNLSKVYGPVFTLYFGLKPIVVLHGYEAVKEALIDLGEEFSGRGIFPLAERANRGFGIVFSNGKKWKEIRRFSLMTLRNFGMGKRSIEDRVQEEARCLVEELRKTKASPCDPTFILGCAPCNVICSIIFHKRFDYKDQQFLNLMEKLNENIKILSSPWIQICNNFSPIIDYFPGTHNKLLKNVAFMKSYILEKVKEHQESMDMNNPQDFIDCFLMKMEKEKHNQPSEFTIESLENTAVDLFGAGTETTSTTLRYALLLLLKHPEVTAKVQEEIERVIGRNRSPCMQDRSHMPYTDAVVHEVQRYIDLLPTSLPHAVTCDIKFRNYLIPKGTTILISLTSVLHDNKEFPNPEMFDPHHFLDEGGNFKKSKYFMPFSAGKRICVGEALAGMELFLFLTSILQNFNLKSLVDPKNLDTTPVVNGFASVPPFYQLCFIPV
Turning to `Fc1ccc([C@@H]2CCNC[C@H]2COc2ccc3c(c2)OCO3)cc1` [PAROXETINE], the IC50 result is listed as “Not Active” and the Ki entry is “Not Active”.

As to `Nc1nc2c(ncn2COC(CO)CO)c(=O)[nH]1` [GANCICLOVIR], the IC50 entry was “Not Active” and the Ki result is given as “Not Active”.

With `COCc1c(C(C)C)nc(C(C)C)c(/C=C/[C@@H](O)C[C@@H](O)CC(=O)O)c1-c1ccc(F)cc1` [CERIVASTATIN], the IC50 result is listed as “Not Active” and the Ki entry is “Not Active”.

System in the next series: not listed separately
Put plainly: DRUGMATRIX: GABAA, Flunitrazepam, Central radioligand binding (ligand: [3H] Flunitrazepam). In kind it is cell membranes, Rattus norvegicus, Wistar, Brain, Membrane. As to conditions: Not Active = under 50% inhibition at 10 µM.
`Fc1ccc([C@@H]2CCNC[C@H]2COc2ccc3c(c2)OCO3)cc1` [PAROXETINE]: the IC50 result was “Not Active” and the Ki entry is “Not Active”.

As to `Nc1nc2c(ncn2COC(CO)CO)c(=O)[nH]1` [GANCICLOVIR], the IC50 entry is on record as “Not Active” and the Ki entry is “Not Active”.

For the compound `COCc1c(C(C)C)nc(C(C)C)c(/C=C/[C@@H](O)C[C@@H](O)CC(=O)O)c1-c1ccc(F)cc1` [CERIVASTATIN], the IC50 entry is given as “Not Active” and the Ki result is on record as “Not Active”.

System in a further series: not listed separately
Put plainly: DRUGMATRIX: Phosphodiesterase PDE3 enzyme inhibition (substrate: [3H]cAMP + cAMP). Type of series: tissue-based, Homo sapiens. As to conditions: platelet; Not Active = under 50% inhibition at 10 µM.
As for `Fc1ccc([C@@H]2CCNC[C@H]2COc2ccc3c(c2)OCO3)cc1` [PAROXETINE], the IC50 entry is listed as “Not Active” and the Ki entry was “Not Active”.

Regarding `Nc1nc2c(ncn2COC(CO)CO)c(=O)[nH]1` [GANCICLOVIR], the IC50 entry was “Not Active” and the Ki result was “Not Active”.

Turning to `COCc1c(C(C)C)nc(C(C)C)c(/C=C/[C@@H](O)C[C@@H](O)CC(=O)O)c1-c1ccc(F)cc1` [CERIVASTATIN], the IC50 result was “Not Active” and the Ki result was “Not Active”.

Another series addresses T3, Alpha-2C adrenergic receptor (Homo sapiens, UniProt P18825).
T3 sequence (P18825 whole entry): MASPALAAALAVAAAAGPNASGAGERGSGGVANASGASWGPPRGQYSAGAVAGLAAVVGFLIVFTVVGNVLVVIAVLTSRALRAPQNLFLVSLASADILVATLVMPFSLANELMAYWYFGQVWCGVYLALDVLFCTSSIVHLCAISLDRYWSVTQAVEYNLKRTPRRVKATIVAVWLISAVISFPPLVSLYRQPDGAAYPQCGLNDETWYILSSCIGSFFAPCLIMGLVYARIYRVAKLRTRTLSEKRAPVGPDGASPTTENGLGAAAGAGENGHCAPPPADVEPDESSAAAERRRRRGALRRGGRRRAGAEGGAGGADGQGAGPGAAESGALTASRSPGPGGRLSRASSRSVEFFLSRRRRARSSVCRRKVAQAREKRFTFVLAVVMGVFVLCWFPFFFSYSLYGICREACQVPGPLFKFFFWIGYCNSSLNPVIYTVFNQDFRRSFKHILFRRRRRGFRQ
Put plainly: DRUGMATRIX: Adrenergic Alpha-2C radioligand binding (ligand: [3H] MK-912). In kind it is cell membranes, Sf9, Membrane. As to conditions: sf9.
On to `Fc1ccc([C@@H]2CCNC[C@H]2COc2ccc3c(c2)OCO3)cc1` [PAROXETINE], for which the IC50 result is “Not Active”.

Consider `Nc1nc2c(ncn2COC(CO)CO)c(=O)[nH]1` [GANCICLOVIR], for which the IC50 entry is “Not Active”.

For the compound `COCc1c(C(C)C)nc(C(C)C)c(/C=C/[C@@H](O)C[C@@H](O)CC(=O)O)c1-c1ccc(F)cc1` [CERIVASTATIN], the IC50 result was “Not Active”.

For the next series, the target named is Protein phosphatase 3 catalytic subunit alpha (Homo sapiens, UniProt Q08209). More on the design: species or system Escherichia coli.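 Note: inhibition of calcineurin (PP2B) enzyme activity, measured with DiFMUP as the substrate; in other assays of this panel Not Active means under 50% inhibition at 10 µM.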
Conditions: not given
For the compound `Fc1ccc([C@@H]2CCNC[C@H]2COc2ccc3c(c2)OCO3)cc1` [PAROXETINE], the IC50 result is recorded as “Not Active”.

Take `Nc1nc2c(ncn2COC(CO)CO)c(=O)[nH]1` [GANCICLOVIR]: the IC50 entry is recorded as “Not Active”.

`COCc1c(C(C)C)nc(C(C)C)c(/C=C/[C@@H](O)C[C@@H](O)CC(=O)O)c1-c1ccc(F)cc1` [CERIVASTATIN]: the IC50 result is reported as “Not Active”.

System in another series: not listed separately
Put plainly: DRUGMATRIX: Atrial Natriuretic Factor (ANF) radioligand binding (ligand: [125I] ANF (rat)). As to conditions: Not Active = under 50% inhibition at 10 µM. Type of series: cell membranes, Cavia porcellus, Dunkin-Hartley, Adrenal gland, Membrane.
With `Fc1ccc([C@@H]2CCNC[C@H]2COc2ccc3c(c2)OCO3)cc1` [PAROXETINE], the IC50 result was “Not Active” and the Ki entry is recorded as “Not Active”.

Regarding `Nc1nc2c(ncn2COC(CO)CO)c(=O)[nH]1` [GANCICLOVIR], the IC50 entry is recorded as “Not Active” and the Ki result is “Not Active”.

Regarding `COCc1c(C(C)C)nc(C(C)C)c(/C=C/[C@@H](O)C[C@@H](O)CC(=O)O)c1-c1ccc(F)cc1` [CERIVASTATIN], the IC50 result is on record as “Not Active” and the Ki entry is “Not Active”.

The target of the next series is Cannabinoid receptor 1 (Homo sapiens, UniProt P21554). Type of series: cell membranes, Membrane. As to conditions: chem-1. Note: in other assays of this panel Not Active means under 50% inhibition at 10 µM.
Chain of Cannabinoid receptor 1 (P21554 whole entry): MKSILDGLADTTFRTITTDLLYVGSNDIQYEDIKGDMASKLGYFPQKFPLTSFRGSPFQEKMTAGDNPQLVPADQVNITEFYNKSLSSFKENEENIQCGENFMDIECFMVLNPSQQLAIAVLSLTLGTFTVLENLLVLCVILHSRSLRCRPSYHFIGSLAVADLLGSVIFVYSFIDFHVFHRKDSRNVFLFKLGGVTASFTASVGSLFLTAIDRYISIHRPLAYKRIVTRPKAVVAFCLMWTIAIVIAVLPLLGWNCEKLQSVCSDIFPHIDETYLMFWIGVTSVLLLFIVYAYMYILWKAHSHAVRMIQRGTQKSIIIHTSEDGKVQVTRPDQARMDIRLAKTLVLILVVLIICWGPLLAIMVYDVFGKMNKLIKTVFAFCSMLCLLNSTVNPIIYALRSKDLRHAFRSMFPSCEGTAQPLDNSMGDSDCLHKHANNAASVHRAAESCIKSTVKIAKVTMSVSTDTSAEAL
With `Fc1ccc([C@@H]2CCNC[C@H]2COc2ccc3c(c2)OCO3)cc1` [PAROXETINE], the IC50 result is “Not Active”.

As to `Nc1nc2c(ncn2COC(CO)CO)c(=O)[nH]1` [GANCICLOVIR], the IC50 result is “Not Active”.

On to `COCc1c(C(C)C)nc(C(C)C)c(/C=C/[C@@H](O)C[C@@H](O)CC(=O)O)c1-c1ccc(F)cc1` [CERIVASTATIN], for which the IC50 entry is reported as “Not Active”.

System in another series: not listed separately
Put plainly: DRUGMATRIX: Calcium Channel Type L, Dihydropyridine radioligand binding (ligand: [3H] Nitrendipine). In kind it is cell membranes, Rattus norvegicus, Wistar, Cerebral cortex, Membrane. The note with it: Not Active = under 50% inhibition at 10 µM.
Take `Nc1nc2c(ncn2COC(CO)CO)c(=O)[nH]1` [GANCICLOVIR]: the IC50 entry is reported as “Not Active” and the Ki result is “Not Active”.

As for `COCc1c(C(C)C)nc(C(C)C)c(/C=C/[C@@H](O)C[C@@H](O)CC(=O)O)c1-c1ccc(F)cc1` [CERIVASTATIN], the IC50 result is on record as “Not Active” and the Ki entry was “Not Active”.

Staying with this series, now noted: Not Active = under 50% inhibition at 10 µM; read-out: IC50.
As for `Fc1ccc([C@@H]2CCNC[C@H]2COc2ccc3c(c2)OCO3)cc1` [PAROXETINE], the pIC50 is 5.83.

The series is the same for the next values; noted with them: Not Active = under 50% inhibition at 10 µM; read-out: Ki.
Consider `Fc1ccc([C@@H]2CCNC[C@H]2COc2ccc3c(c2)OCO3)cc1` [PAROXETINE], for which the pKi is 6.02.

The target of another series is Kappa-type opioid receptor (Homo sapiens, UniProt P41145). Put plainly: DRUGMATRIX: Opiate kappa (OP2, KOP) radioligand binding (ligand: [3H] Diprenorphine). Type of series: cell membranes, HEK293, Membrane. As to conditions: hek293; Not Active = under 50% inhibition at 10 µM.
Chain of Kappa-type opioid receptor (P41145 whole entry): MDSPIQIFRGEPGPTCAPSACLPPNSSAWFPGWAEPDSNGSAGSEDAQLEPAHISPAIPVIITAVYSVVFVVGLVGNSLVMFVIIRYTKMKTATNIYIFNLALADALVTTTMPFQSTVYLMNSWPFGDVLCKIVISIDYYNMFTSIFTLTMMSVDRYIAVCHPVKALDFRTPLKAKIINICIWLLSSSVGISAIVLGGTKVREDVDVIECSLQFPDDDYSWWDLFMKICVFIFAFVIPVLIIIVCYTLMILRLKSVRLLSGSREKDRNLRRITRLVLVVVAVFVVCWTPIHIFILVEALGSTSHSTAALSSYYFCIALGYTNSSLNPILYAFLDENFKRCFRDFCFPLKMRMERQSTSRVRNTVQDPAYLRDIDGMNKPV
With `Fc1ccc([C@@H]2CCNC[C@H]2COc2ccc3c(c2)OCO3)cc1` [PAROXETINE], the IC50 entry is recorded as “Not Active”.

With `Nc1nc2c(ncn2COC(CO)CO)c(=O)[nH]1` [GANCICLOVIR], the IC50 entry is listed as “Not Active”.

Consider `COCc1c(C(C)C)nc(C(C)C)c(/C=C/[C@@H](O)C[C@@H](O)CC(=O)O)c1-c1ccc(F)cc1` [CERIVASTATIN], for which the IC50 result is listed as “Not Active”.

For a further series, the target named is T4, Endothelin-1 receptor (Homo sapiens, UniProt P25101). Note: in other assays of this panel Not Active means under 50% inhibition at 10 µM.
T4 sequence (P25101 whole entry): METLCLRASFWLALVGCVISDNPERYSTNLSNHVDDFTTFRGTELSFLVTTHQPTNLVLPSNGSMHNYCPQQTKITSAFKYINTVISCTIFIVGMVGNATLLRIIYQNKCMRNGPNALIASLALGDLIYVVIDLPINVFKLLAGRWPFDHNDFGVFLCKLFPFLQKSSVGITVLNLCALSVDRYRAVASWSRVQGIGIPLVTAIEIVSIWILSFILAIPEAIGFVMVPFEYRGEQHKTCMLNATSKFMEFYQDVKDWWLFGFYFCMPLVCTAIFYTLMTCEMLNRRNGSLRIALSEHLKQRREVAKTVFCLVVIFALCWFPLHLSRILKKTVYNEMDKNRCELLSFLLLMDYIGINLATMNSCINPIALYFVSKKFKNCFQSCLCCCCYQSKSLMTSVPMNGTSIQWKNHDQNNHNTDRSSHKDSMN
Type of series: cell membranes, Membrane. As to conditions: cho-k1.
Turning to `Fc1ccc([C@@H]2CCNC[C@H]2COc2ccc3c(c2)OCO3)cc1` [PAROXETINE], the IC50 result was “Not Active”.

In the case of `Nc1nc2c(ncn2COC(CO)CO)c(=O)[nH]1` [GANCICLOVIR], the IC50 entry was “Not Active”.

As to `COCc1c(C(C)C)nc(C(C)C)c(/C=C/[C@@H](O)C[C@@H](O)CC(=O)O)c1-c1ccc(F)cc1` [CERIVASTATIN], the IC50 entry is “Not Active”.
